Drawing on patent US7888363B2, “Viral polymerase inhibitors” (Boehringer Ingelheim International GmbH, priority 2003, dated 2011), this text covers IC50 for 61 molecules.

Structures are written as SMILES.

Sequence of hepatitis C virus RNA dependant polymerase (NS5B) (P26663 2420-3010): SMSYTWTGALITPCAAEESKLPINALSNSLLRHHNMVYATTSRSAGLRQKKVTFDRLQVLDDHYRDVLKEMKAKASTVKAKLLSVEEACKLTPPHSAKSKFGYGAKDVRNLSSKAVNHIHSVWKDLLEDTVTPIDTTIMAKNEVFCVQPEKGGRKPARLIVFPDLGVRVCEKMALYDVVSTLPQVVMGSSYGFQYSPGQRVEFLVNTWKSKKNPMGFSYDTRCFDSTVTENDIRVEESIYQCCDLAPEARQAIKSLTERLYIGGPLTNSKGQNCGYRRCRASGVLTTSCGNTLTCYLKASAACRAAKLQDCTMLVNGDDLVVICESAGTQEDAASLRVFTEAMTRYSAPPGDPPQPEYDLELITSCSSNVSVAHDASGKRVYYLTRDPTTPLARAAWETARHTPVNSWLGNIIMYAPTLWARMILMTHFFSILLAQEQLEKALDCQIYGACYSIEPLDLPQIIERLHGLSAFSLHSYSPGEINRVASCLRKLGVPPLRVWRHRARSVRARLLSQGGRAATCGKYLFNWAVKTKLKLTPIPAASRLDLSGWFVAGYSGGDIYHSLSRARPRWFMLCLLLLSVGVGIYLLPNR

The target in one assay is hepatitis C virus RNA dependant polymerase (NS5B) (Hepatitis C virus genotype 1b, UniProt P26663). As to the kind of experiment: Inhibition of NS5B RNA dependent RNA polymerase activity. In kind it is biochemical. The note with it: Table 1; HCV NS5B polymerase. As to the method:
A suitable assay is described in the examples.
Inhibition of NS5B RNA Dependent RNA Polymerase Activity
The compounds of the invention were tested for inhibitory activity against the hepatitis C virus RNA dependant polymerase (NS5B), according to protocol described in WO 03/010141
Molecule `CCN(CCOC)C(=O)Cn1c(-c2ccoc2)c(C2CCCCC2)c2ccc(C(=O)O)cc21` [Example 1017] displayed an IC50 below 200 nM. Same read-out and setting: with `CN(C)C(=O)Cn1c(-c2ccccn2)c(C2CCCCC2)c2ccc(C(=O)O)cc21` [Example 1142] the figure was 200 to 1000 nM. Same read-out and setting: with `CC(C)N(C(=O)Cn1c(-c2ccoc2)c(C2CCCCC2)c2ccc(C(=O)O)cc21)C1CCCCC1` [Example 1091] the figure was 200 to 1000 nM.

Molecule `O=C(O)c1ccc2c(C3CCCCC3)c(-c3ccsc3)n(CC(=O)N3CCOCC3)c2c1` [Example 1027] came in with a concentration for half-maximal inhibition (IC50) below 200 nM. Still for that read-out and setting: with `O=C(Cn1c(-c2ccoc2)c(C2CCCCC2)c2ccc(C(=O)O)cc21)NCCCN1CCOCC1` [Example 1009] the figure was 200 to 1000 nM; with `O=C(O)c1ccc2c(C3CCCCC3)c(-c3ccc(Br)cn3)n(CC(=O)N3CCC[C@H]3C(=O)O)c2c1` [Example 1137], 200 to 1000 nM; with `CS(=O)(=O)NC(=O)Cn1c(-c2ccoc2)c(C2CCCCC2)c2ccc(C(=O)O)cc21` [Example 1013], 200 to 1000 nM. The same measure, in the same setting: with `O=C(O)/C=C/c1ccc(NC(=O)Cn2c(-c3ccoc3)c(C3CCCCC3)c3ccc(C(=O)O)cc32)cc1` [Example 1071] the figure was 200 to 1000 nM; with `CC1CCN(C(=O)Cn2c(-c3ccoc3)c(C3CCCCC3)c3ccc(C(=O)O)cc32)CC1` [Example 1101], 200 to 1000 nM.

The molecule `CC(=O)NNC(=O)Cn1c(-c2ccoc2)c(C2CCCCC2)c2ccc(C(=O)O)cc21` [Example 1110] had an IC50 below 200 nM. On to `Nc1cccc(-c2c(C3CCCCC3)c3ccc(C(=O)O)cc3n2CC(=O)N2CCC(N3CCCC3)CC2)n1` [Example 1050], for which the IC50 is below 200 nM. Same read-out and setting: with `CN(CCc1ccncc1)C(=O)Cn1c(-c2ccoc2)c(C2CCCCC2)c2ccc(C(=O)O)cc21` [Example 1004] the figure was below 200 nM. Regarding `CN(C)C(=O)Cn1c(-c2ccccc2)c(C2CCCCC2)c2ccc(C(=O)O)cc21` [Example 1025], the IC50 is below 200 nM. On the same count and under the same terms, with `O=C(Cn1c(-c2ccoc2)c(C2CCCCC2)c2ccc(C(=O)O)cc21)NCc1ccco1` [Example 1056] the figure was 200 to 1000 nM; with `O=C(Cn1c(-c2ccoc2)c(C2CCCCC2)c2ccc(C(=O)O)cc21)NNC(=O)NC[C@H]1CC[C@H](C(=O)O)CC1` [Example 1076], below 200 nM; with `CN(CCO)C(=O)Cn1c(-c2ccoc2)c(C2CCCCC2)c2ccc(C(=O)O)cc21` [Example 1090], below 200 nM.

`O=C(O)c1ccc2c(C3CCCCC3)c(-c3cccs3)n(CC(=O)N3CCC(N4CCCC4)CC3)c2c1` [Example 1034] displayed an IC50 below 200 nM. The molecule `O=C(O)c1ccc2c(C3CCCCC3)c(-c3ccoc3)n(CC(=O)N3CCN(CCO)CC3)c2c1` [Example 1096] had an IC50 below 200 nM. In turn, `CN(C)CCN(C)C(=O)Cn1c(-c2ccoc2)c(C2CCCCC2)c2ccc(C(=O)O)cc21` [Example 1112] yielded an IC50 below 200 nM. `CN(C)C1CCN(C(=O)Cn2c(-c3ccoc3)c(C3CCCCC3)c3ccc(C(=O)O)cc32)C1` (stereo not shown) [Example 1131] displayed an IC50 below 200 nM. `CCN(C(=O)Cn1c(-c2ccoc2)c(C2CCCCC2)c2ccc(C(=O)O)cc21)C1CCCCC1` [Example 1093] registered an IC50 of 200 to 1000 nM.

Still in this assay, the particulars now being: Table 2; HCV NS5B polymerase.
`O=C(NS(=O)(=O)c1ccc(Cl)cc1)c1ccc2c(C3CCCCC3)c(-c3ccoc3)n(CC(=O)N3CCOCC3)c2c1` [Example 2019] came in with an IC50 below 200 nM. The same measure, in the same setting: with `O=C(NS(=O)(=O)c1ccccc1Cl)c1ccc2c(C3CCCCC3)c(-c3ccoc3)n(CC(=O)N3CCOCC3)c2c1` [Example 2012] the figure was below 200 nM; with `CN(C(=O)c1ccc2c(C3CCCCC3)c(-c3ccoc3)n(CC(=O)N3CCOCC3)c2c1)S(=O)(=O)c1ccccc1` [Example 2023], 1000 to 10000 nM. `O=C(NS(=O)(=O)c1ccc(F)cc1)c1ccc2c(C3CCCCC3)c(-c3ccoc3)n(CC(=O)N3CCOCC3)c2c1` [Example 2015] showed an IC50 below 200 nM. Same read-out and setting: with `Cc1nn(C)c(Cl)c1S(=O)(=O)NC(=O)c1ccc2c(C3CCCCC3)c(-c3ccoc3)n(CC(=O)N3CCOCC3)c2c1` [Example 2033] the figure was below 200 nM. With `CS(=O)(=O)c1ccccc1S(=O)(=O)NC(=O)c1ccc2c(C3CCCCC3)c(-c3ccoc3)n(CC(=O)N3CCOCC3)c2c1` [Example 2038], the IC50 is below 200 nM. Turning to `O=C(NS(=O)(=O)c1cccc2cnccc12)c1ccc2c(C3CCCCC3)c(-c3ccoc3)n(CC(=O)N3CCOCC3)c2c1` [Example 2039], the IC50 was below 200 nM.

The assay is the same for the next values; noted with them: Table 3; HCV NS5B polymerase.
Take `O=C(O)/C=C/c1ccc(NC(=O)C2(NC(=O)c3ccc4c(C5CCCC5)c(-c5ccccn5)n(CC(=O)N5CCCC5)c4c3)CCC2)cc1` [Example 3010]: the IC50 is below 200 nM.

Staying with this assay, now noted: Table 4; class ranges.
Regarding `COC(=O)C1(NC(=O)c2ccc3c(C4CCCCC4)c(-c4ccoc4)n(CC(=O)N4CCOCC4)c3c2)COCOC1` [Example 4080], the IC50 is 200 to 1000 nM.

The molecule `Cc1cnc(CNC(=O)c2ccc3c(C4CCCCC4)c(-c4ccoc4)n(CC(=O)N4CCN(C)CC4)c3c2)cn1` [Example 4044] yielded an IC50 of 200 to 1000 nM. Take `O=C(NCc1ccc2c(c1)OCO2)c1ccc2c(C3CCCCC3)c(-c3ccoc3)n(CC(=O)N3CCOCC3)c2c1` [Example 4045]: the IC50 fell in the range of 200 to 1000 nM.

Turning to `CNC(=O)c1ccc2c(C3CCCCC3)c(-c3ccoc3)n(CC(=O)N3CCN(C)CC3)c2c1` [Example 4028], the IC50 lay within 200 to 1000 nM. On the same count and under the same terms, with `CN1CCN(C(=O)Cn2c(-c3ccoc3)c(C3CCCCC3)c3ccc(C(=O)NCC(O)c4ccccc4)cc32)CC1` (stereo not shown) [Example 4023] the figure was 200 to 1000 nM.

Regarding `CNC(=O)C1(NC(=O)c2ccc3c(C4CCCCC4)c(-c4ccoc4)n(CC(=O)N4CCC(N5CCCC5)CC4)c3c2)CCCC1` [Example 4094], the IC50 is below 200 nM. As for `CN1CCN(C(=O)Cn2c(-c3ccoc3)c(C3CCCCC3)c3ccc(C(=O)NCC4CC4)cc32)CC1` [Example 4034], the IC50 was 200 to 1000 nM. Take `CN(C)C(=O)C1(NC(=O)c2ccc3c(C4CCCCC4)c(-c4ccoc4)n(CC(=O)N4CCOCC4)c3c2)CCCC1` [Example 4097]: the IC50 is below 200 nM. As for `CCOC(=O)c1nc(C2(NC(=O)c3ccc4c(C5CCCCC5)c(-c5ccoc5)n(CC(=O)N5CCC(N6CCCC6)CC5)c4c3)CCC2)cs1` [Example 4108], the IC50 lay within 200 to 1000 nM.

`CN1CCN(C(=O)Cn2c(-c3ccoc3)c(C3CCCCC3)c3ccc(C(=O)NCc4ccc5c(c4)OCO5)cc32)CC1` [Example 4013]: the IC50 is 200 to 1000 nM. Same read-out and setting: with `Cc1c(C2(NC(=O)c3ccc4c(C5CCCCC5)c(-c5ccoc5)n(CC(=O)N5CCOCC5)c4c3)CCC2)oc2ccc(C(=O)O)cc12` [Example 4088] the figure was below 200 nM; with `COc1ccc([C@@H](C)NC(=O)c2ccc3c(C4CCCCC4)c(-c4ccoc4)n(CC(=O)N4CCN(C)CC4)c3c2)cc1` [Example 4043], below 200 nM. With `O=C(NC(=O)c1ccc2c(C3CCCCC3)c(-c3ccoc3)n(CC(=O)N3CCOCC3)c2c1)c1ccccc1` [Example 4065], the IC50 is 1000 to 10000 nM.

In turn, `Cc1nc(C2(NC(=O)c3ccc4c(C5CCCCC5)c(-c5ccoc5)n(CC(=O)N5CCC(N6CCCC6)CC5)c4c3)CCC2)cs1` [Example 4099] yielded an IC50 below 200 nM. In turn, `CN1CCN(C(=O)Cn2c(-c3ccoc3)c(C3CCCCC3)c3ccc(C(=O)NCc4ccncc4)cc32)CC1` [Example 4018] yielded an IC50 of 200 to 1000 nM. In turn, `CN1CCN(C(=O)Cn2c(-c3ccoc3)c(C3CCCCC3)c3ccc(C(=O)NC4CCN(Cc5ccccc5)C4)cc32)CC1` (stereo not shown) [Example 4036] showed an IC50 of 200 to 1000 nM. Regarding `N#CC1(NC(=O)c2ccc3c(C4CCCCC4)c(-c4ccoc4)n(CC(=O)N4CCC(N5CCCC5)CC4)c3c2)CCC1` [Example 4090], the IC50 is below 200 nM.

Still in this assay, the particulars now being: Table 5; HCV NS5B polymerase.
The molecule `CC(C)=CCn1c(-c2ccoc2)c(C2CCCCC2)c2ccc(C(=O)O)cc21` [Example 5006] yielded an IC50 of 1000 to 10000 nM. For the molecule `C=C(C)Cn1c(-c2ccoc2)c(C2CCCCC2)c2ccc(C(=O)O)cc21` [Example 5007], the IC50 was in the range of 200 to 1000 nM.

The assay is the same for the next values; noted with them: Table 6; HCV NS5B polymerase.
`O=C(O)c1ccc2c(c1)c(C1CCCCC1)c(-c1ccoc1)n2CC(=O)N1CCOCC1` [Example 6001] had an IC50 of 200 to 1000 nM. Same read-out and setting: with `CN(C)C(=O)Cn1c(-c2ccoc2)c(C2CCCCC2)c2cc(C(=O)O)ccc21` [Example 6003] the figure was 200 to 1000 nM.

The same assay, now with this note: Table 7; class ranges.
Molecule `O=C(NC[C@H]1CC[C@H](C(=O)O)CC1)c1ccc2c(c1)c(C1CCCCC1)c(-c1ccoc1)n2CC(=O)N1CCC(N2CCCC2)CC1` [Example 7054] returned an IC50 of 1000 to 10000 nM. With `CC(NC(=O)c1ccc2c(c1)c(C1CCCCC1)c(-c1ccoc1)n2CC(=O)N1CCC(N2CCCC2)CC1)c1ccccc1` (stereo not shown) [Example 7026], the IC50 fell in the range of 1000 to 10000 nM.

Regarding `O=C(NCCOCCO)c1ccc2c(c1)c(C1CCCCC1)c(-c1ccoc1)n2CC(=O)N1CCC(N2CCCC2)CC1` [Example 7059], the IC50 fell in the range of 1000 to 10000 nM. Regarding `Cc1cccc(CNC(=O)c2ccc3c(c2)c(C2CCCCC2)c(-c2ccoc2)n3CC(=O)N2CCC(N3CCCC3)CC2)c1` [Example 7029], the IC50 was 1000 to 10000 nM. On the same count and under the same terms, with `Cc1cnc(CNC(=O)c2ccc3c(c2)c(C2CCCCC2)c(-c2ccoc2)n3CC(=O)N2CCC(N3CCCC3)CC2)cn1` [Example 7052] the figure was 1000 to 10000 nM; with `O=C(NCc1ccccn1)c1ccc2c(c1)c(C1CCCCC1)c(-c1ccoc1)n2CC(=O)N1CCC(N2CCCC2)CC1` [Example 7019], 1000 to 10000 nM. Same read-out and setting: with `O=C(O)c1cc2c(cc1O)c(C1CCCCC1)c(-c1ccoc1)n2CC(=O)N1CCOCC1` [Example 7008] the figure was 1000 to 10000 nM. On the same count and under the same terms, with `Cc1c(C(=O)O)ccc2c(C3CCCCC3)c(-c3ccoc3)n(CC(=O)N3CCOCC3)c12` [Example 7005] the figure was below 200 nM; with `COc1cc2c(C3CCCCC3)c(-c3ccoc3)n(CC(=O)N3CCOCC3)c2cc1C(=O)O` [Example 7002], 200 to 1000 nM.

The molecule `CN(CCc1ccccn1)C(=O)c1ccc2c(c1)c(C1CCCCC1)c(-c1ccoc1)n2CC(=O)N1CCC(N2CCCC2)CC1` [Example 7020] showed an IC50 of 1000 to 10000 nM.

`O=C(Nc1ccc(CCO)cc1)c1ccc2c(c1)c(C1CCCCC1)c(-c1ccoc1)n2CC(=O)N1CCC(N2CCCC2)CC1` [Example 7024] yielded an IC50 of 1000 to 10000 nM.

The IC50 is the concentration that gives 50% inhibition.
